Patent US12098133B2, “Hydantoin containing deoxyuridine triphosphatase inhibitors” (CV6 Therapeutics (NI) Limited, priority 2015, dated 2024)

Columns and labels:
[1] = system: colorectal (HCT116), breast (MCF-7) and non-small cell lung (H1299, A549, H358 and H460) cell line models; test: Colony forming assay; type: cell-based; conditions: FUdR between 0.5 and 2.5 μmol/L; all cell lines evaluated
Method: Colony forming assay showing the ability of colon (SW620, HCT116), non-small cell lung (A549, H460, H1299 and H358) and breast (MCF7) cancer cells to survive and proliferate following transient 24 hour exposure to test compounds, FUdR and combinations are determined. Specifically, cells are seeded at densities between 50 and 100 cells/well in 24-well plates. Twenty-four hours later, cells are treated with increasing concentrations of a rtest compound, a fixed dose of FUdR and combinations of these. After 24 hours, drug is removed, cells are rinsed and allowed to outgrow for 10-14 days. At the conclusion of the outgrowth, cells are fixed in 60% ice cold methanol and stained with 0.1% crystal violet, scanned and counted. Data is presented as percentage of untreated controls (mean±SD). Fraction affected and combination indexes are calculated according to the method of Chou and Talalay where <1 is indicative of a synergistic drug interaction.
Colony forming assays are performed to evaluate the effectiveness of test compounds alone and in combination with the fluoropyrimidine thymidylate synthase (TS) inhibitor fluorodeoxyuridine (FUdR) at reducing cancer cell viability in colorectal (HCT116), breast (MCF-7) and non-small cell lung (H1299, A549, H358 and H460) cell line models. […]

[2] = system: colorectal (HCT116 and SW620) cell line models; test: MTS growth inhibition assay; type: cell-based; conditions: 5-FU between 0 and 100 μmol/L; both colorectal cancer cell lines (HCT116 and SW620)
Method: The Cell Titer AQueous MTS assay (Promega) is carried out according to the manufacturers guidelines. […] Fraction affected (FA) is calculated from the percent growth inhibition: FA=(100−% growth inhibition)/100.
Test compounds are evaluated for their antitumor activity in colorectal cancer cells using the MTS growth inhibition assay. HCT116 and SW620 cells are exposed to increasing concentrations of each agent for 72 hours and growth inhibition is directly compared to vehicle-treated controls. The NSCLC cell lines A549 and H1299 are exposed to increasing concentrations of each agent for 72 hours and growth inhibition is directly compared to vehicle-treated controls.
Simultaneous treatment with increasing concentrations of 5-FU and a test compound at fixed concentrations of 25 μmol/L is determined.

SMILES | colonies formed [1] | growth inhibition [2]
O=c1[nH]c(=O)n([C@H]2C[C@H](O)[C@@H](CO)O2)cc1F [FUdR, fluorodeoxyuridine] | dose-dependent decreases in colonies formed | 
O=c1[nH]cc(F)c(=O)[nH]1 [5-FU, 5-fluorouracil] |  | dose-dependent increases in growth inhibition
